Results from ChEMBL document CHEMBL1139716, “Naphtho[2,3-b][1,4]-thiazine-5,10-diones and 3-substituted-1,4-dioxo-1,4-dihydronaphthalen-2-yl-thioalkanoate derivatives: synthesis and biological evaluation as potential antibacterial and antifungal agents” (Bioorg Med Chem Lett, 2006).
Values after ≈ are worked out from the molar mass of the structure shown.

Assays:
Cryptococcus neoformans = test: Antifungal activity against Cryptococcus neoformans by broth microdilution technique; format: functional, organism-based
Klebsiella pneumoniae = test: Antibacterial activity against Klebsiella pneumoniae by broth microdilution technique; format: functional, organism-based
Pseudomonas aeruginosa = test: Antibacterial activity against Pseudomonas aeruginosa by broth microdilution technique; format: functional, organism-based
Enterococcus faecalis = test: Antibacterial activity against Streptococcus faecalis by broth microdilution technique; format: functional, organism-based
Escherichia coli = test: Antibacterial activity against Escherichia coli by broth microdilution technique; format: functional, organism-based
Staphylococcus aureus = test: Antibacterial activity against Staphylococcus aureus by broth microdilution technique; format: functional, organism-based
Candida albicans = test: Antifungal activity against Candida albicans by broth microdilution technique; format: functional, organism-based
Trichophyton benhamiae = test: Antifungal activity against Trichophyton mentagrophytes by broth microdilution technique; format: functional, organism-based, Arthroderma benhamiae
Candida parapsilosis = test: Antifungal activity against Candida parapsilosis ATCC 22019 by broth microdilution technique; format: functional, organism-based; details: Lodderomyces parapsilosis
Sporothrix schenckii = test: Antifungal activity against Sporothrix schenckii by broth microdilution technique; format: functional, organism-based
Aspergillus fumigatus = test: Antifungal activity against Aspergillus fumigatus by broth microdilution technique; format: functional, organism-based
[1] = Klebsiella pneumoniae, read-out: IC50
[2] = Pseudomonas aeruginosa, read-out: IC50
[3] = Enterococcus faecalis, read-out: IC50
[4] = Escherichia coli, read-out: IC50
[5] = Staphylococcus aureus, read-out: IC50

| Molecule | IC50 (Cryptococcus neoformans) | MIC (Cryptococcus neoformans) | MIC (Klebsiella pneumoniae; Klebsiella pneumoniae) | IC50 (Klebsiella pneumoniae; [1]) | MIC (Pseudomonas aeruginosa; Pseudomonas aeruginosa) | IC50 (Pseudomonas aeruginosa; [2]) | MIC (Enterococcus faecalis; Enterococcus faecalis) | IC50 (Enterococcus faecalis; [3]) | MIC (Escherichia coli; Escherichia coli) | IC50 (Escherichia coli; [4]) | MIC (Staphylococcus aureus; Staphylococcus aureus) | IC50 (Staphylococcus aureus; [5]) | IC50 (Candida albicans) | MIC (Candida albicans) | IC50 (Trichophyton benhamiae) | MIC (Trichophyton benhamiae) | IC50 (Candida parapsilosis) | MIC (Candida parapsilosis) | IC50 (Sporothrix schenckii) | MIC (Sporothrix schenckii) | other results |
| --- | --- | --- | --- | --- | --- | --- | --- | --- | --- | --- | --- | --- | --- | --- | --- | --- | --- | --- | --- | --- | --- |
| CCOC(=O)C(C)SC1=C(N)C(=O)c2ccccc2C1=O (stereo unspecified) | 12 µg/mL (≈ 39.3 µM) | 12.5 µg/mL (≈ 40.9 µM) | 12.5 µg/mL (≈ 40.9 µM) | 11.7 µg/mL (≈ 38.3 µM) | 50 µg/mL (≈ 164 µM) | 34.5 µg/mL (≈ 113 µM) | 12.5 µg/mL (≈ 40.9 µM) | 8.54 µg/mL (≈ 28 µM) | 1.56 µg/mL (≈ 5.11 µM) | 1.18 µg/mL (≈ 3.86 µM) | 6.25 µg/mL (≈ 20.5 µM) | 6.16 µg/mL (≈ 20.2 µM) | 24.2 µg/mL (≈ 79.3 µM) | 25 µg/mL (≈ 81.9 µM) | > 50 µg/mL | > 50 µg/mL | 21.2 µg/mL (≈ 69.6 µM) | 25 µg/mL (≈ 81.9 µM) | 17.9 µg/mL (≈ 58.7 µM) | 25 µg/mL (≈ 81.9 µM) | IC50 (Aspergillus fumigatus): 16.6 µg/mL (≈ 54.3 µM); MIC (Aspergillus fumigatus): 25 µg/mL (≈ 81.9 µM) |
| CCOC(=O)CSC1=C(Nc2ccccc2)C(=O)c2ccccc2C1=O | > 50 µg/mL | > 50 µg/mL | 12.5 µg/mL (≈ 34 µM) | 9.24 µg/mL (≈ 25.1 µM) | 25 µg/mL (≈ 68 µM) | 22.8 µg/mL (≈ 62.1 µM) | 25 µg/mL (≈ 68 µM) | 18.6 µg/mL (≈ 50.7 µM) | 6.25 µg/mL (≈ 17 µM) | 4.32 µg/mL (≈ 11.8 µM) | 12.5 µg/mL (≈ 34 µM) | 11.8 µg/mL (≈ 32.2 µM) | > 50 µg/mL | > 50 µg/mL | 23 µg/mL (≈ 62.6 µM) | 25 µg/mL (≈ 68 µM) | > 50 µg/mL | > 50 µg/mL | 46.7 µg/mL (≈ 127 µM) | 50 µg/mL (≈ 136 µM) | IC50 (Aspergillus fumigatus): > 50 µg/mL; MIC (Aspergillus fumigatus): > 50 µg/mL |
| CCOC(=O)C(C)SC1=C(NN)C(=O)c2ccccc2C1=O (stereo unspecified) | 13.3 µg/mL (≈ 41.6 µM) | 25 µg/mL (≈ 78 µM) | 6.25 µg/mL (≈ 19.5 µM) | 5.28 µg/mL (≈ 16.5 µM) | 6.25 µg/mL (≈ 19.5 µM) | 4.62 µg/mL (≈ 14.4 µM) | 25 µg/mL (≈ 78 µM) | 22.3 µg/mL (≈ 69.5 µM) | 6.25 µg/mL (≈ 19.5 µM) | 5.2 µg/mL (≈ 16.2 µM) | 6.25 µg/mL (≈ 19.5 µM) | 5.65 µg/mL (≈ 17.6 µM) | 24.2 µg/mL (≈ 75.7 µM) | 50 µg/mL (≈ 156 µM) | 4.5 µg/mL (≈ 14 µM) | 6.25 µg/mL (≈ 19.5 µM) | 17.3 µg/mL (≈ 54.1 µM) | 25 µg/mL (≈ 78 µM) | 22 µg/mL (≈ 68.7 µM) | 25 µg/mL (≈ 78 µM) | IC50 (Aspergillus fumigatus): 22.4 µg/mL (≈ 69.8 µM); MIC (Aspergillus fumigatus): 25 µg/mL (≈ 78 µM) |
| CC1(C)S[C@@H]2[C@H](NC(=O)[C@H](N)c3ccccc3)C(=O)N2[C@H]1C(=O)O [AMPICILLIN] |  |  | 0.09 µg/mL (≈ 0.258 µM) | 0.08 µg/mL (≈ 0.229 µM) | 50 µg/mL (≈ 143 µM) | 48.7 µg/mL (≈ 139 µM) | 0.02 µg/mL (≈ 0.0572 µM) | 0.01 µg/mL (≈ 0.0286 µM) |  | 0.01 µg/mL (≈ 0.0286 µM) | 0.9 µg/mL (≈ 2.58 µM) | 0.74 µg/mL (≈ 2.12 µM) |  |  |  |  |  |  |  |  |  |
| CCOC(=O)C(C)SC1=C(NCCc2ccc(OC)c(OC)c2)C(=O)c2ccccc2C1=O (stereo unspecified) | > 50 µg/mL | > 50 µg/mL | 50 µg/mL (≈ 106 µM) | 42.5 µg/mL (≈ 90.6 µM) | 50 µg/mL (≈ 106 µM) | 46.2 µg/mL (≈ 98.5 µM) | > 50 µg/mL | > 50 µg/mL | 50 µg/mL (≈ 106 µM) | 44.3 µg/mL (≈ 94.3 µM) | 12.5 µg/mL (≈ 26.6 µM) | 9.52 µg/mL (≈ 20.3 µM) | > 50 µg/mL | > 50 µg/mL | 14 µg/mL (≈ 29.8 µM) | 25 µg/mL (≈ 53.2 µM) | > 50 µg/mL | > 50 µg/mL | > 50 µg/mL | > 50 µg/mL | IC50 (Aspergillus fumigatus): > 50 µg/mL; MIC (Aspergillus fumigatus): > 50 µg/mL |
| GENTAMICIN |  |  |  |  |  |  |  |  |  |  |  |  |  |  |  |  |  |  |  |  | IC50 (Klebsiella pneumoniae): 0.34 µg/mL; IC50 (Pseudomonas aeruginosa): 24.64 µg/mL; IC50 (Enterococcus faecalis): 0.62 µg/mL; IC50 (Escherichia coli): 0.11 µg/mL; IC50 (Staphylococcus aureus): 4.46 µg/mL |
| CCOC(=O)CSC1=C(NC(C)C)C(=O)c2ccccc2C1=O | 11.3 µg/mL (≈ 33.8 µM) | 12.5 µg/mL (≈ 37.5 µM) | 50 µg/mL (≈ 150 µM) | 46.9 µg/mL (≈ 141 µM) | 50 µg/mL (≈ 150 µM) | 35.9 µg/mL (≈ 108 µM) | 25 µg/mL (≈ 75 µM) | 20.6 µg/mL (≈ 61.9 µM) | 25 µg/mL (≈ 75 µM) | 25 µg/mL (≈ 74.9 µM) | 12.5 µg/mL (≈ 37.5 µM) | 18.5 µg/mL (≈ 55.4 µM) | 44.3 µg/mL (≈ 133 µM) | 50 µg/mL (≈ 150 µM) | 9.8 µg/mL (≈ 29.4 µM) | 12.5 µg/mL (≈ 37.5 µM) | 23.2 µg/mL (≈ 69.7 µM) | 25 µg/mL (≈ 75 µM) | 38.6 µg/mL (≈ 116 µM) | 50 µg/mL (≈ 150 µM) | IC50 (Aspergillus fumigatus): 44.9 µg/mL (≈ 135 µM); MIC (Aspergillus fumigatus): 50 µg/mL (≈ 150 µM) |
| CCOC(=O)C(C)SC1=C(NCCO)C(=O)c2ccccc2C1=O (stereo unspecified) | 6.92 µg/mL (≈ 19.8 µM) | 12.5 µg/mL (≈ 35.8 µM) | 12.5 µg/mL (≈ 35.8 µM) | 11.6 µg/mL (≈ 33.1 µM) | 25 µg/mL (≈ 71.5 µM) | 24.5 µg/mL (≈ 70.2 µM) | 6.25 µg/mL (≈ 17.9 µM) | 5.42 µg/mL (≈ 15.5 µM) | 3.12 µg/mL (≈ 8.93 µM) | 2.24 µg/mL (≈ 6.41 µM) | 6.25 µg/mL (≈ 17.9 µM) | 4.82 µg/mL (≈ 13.8 µM) | 23.3 µg/mL (≈ 66.6 µM) | 25 µg/mL (≈ 71.5 µM) | > 50 µg/mL | > 50 µg/mL | 22.5 µg/mL (≈ 64.5 µM) | 25 µg/mL (≈ 71.5 µM) | 21.9 µg/mL (≈ 62.8 µM) | 25 µg/mL (≈ 71.5 µM) | IC50 (Aspergillus fumigatus): 23.9 µg/mL (≈ 68.5 µM); MIC (Aspergillus fumigatus): 25 µg/mL (≈ 71.5 µM) |
